{"source": "EPA's ToxValDB 9.5 (doi:10.2903/j.efsa.2006.51r)", "key": {"Typhlodromus pyri": {"system": "Typhlodromus pyri", "conditions": "not reported; other"}, "Oncorhynchus mykiss": {"system": "Oncorhynchus mykiss", "conditions": "chronic/long-term; duration: 21 days"}, "Apis mellifera": {"system": "Apis mellifera", "conditions": "acute, mortality"}, "Colinus virginianus": {"system": "Colinus virginianus", "conditions": "acute; oral; diet; mortality"}, "Lepomis macrochirus": {"system": "Lepomis macrochirus", "conditions": "acute; duration: 96 hours; mortality"}, "Bibionidae": {"system": "Bibionidae", "conditions": "chronic/long-term"}, "Daphnia magna": {"system": "Daphnia magna", "conditions": "chronic/long-term; duration: 21 days; other"}, "Aphidius rhopalosiphi": {"system": "Aphidius rhopalosiphi", "experiment": "LR50; higher = less toxic", "conditions": "not reported; other"}}}
{"smiles": "Cc1cc(C2CC2)nc(Nc2ccccc2)n1", "note": "[Cyprodinil]", "values": [{"measurement": "LC50", "setting": "Tagia sp.; acute, duration: 14 days, mortality", "result": 192, "unit": "mg/kg"}, {"measurement": "NOEC", "setting": "Tagia sp.; chronic/long-term, duration: 56 days, reproduction", "result": 15000, "unit": "g/ha"}, {"measurement": "LEL", "setting": "Typhlodromus pyri", "result": 750, "unit": "g/ha"}, {"measurement": "NOEC", "setting": "Oncorhynchus mykiss", "result": 0.083, "unit": "mg/L"}, {"measurement": "LD50", "setting": "Rattus norvegicus; acute, oral, mortality", "result": "> 2000", "unit": "mg/kg"}, {"measurement": "NOAEL", "setting": "Rattus norvegicus; chronic, duration: 2 years, M/F, organ weight", "result": 3, "unit": "mg/kg-day"}, {"measurement": "NOAEL", "setting": "Rattus norvegicus; reproduction developmental, organ weight", "result": 72.7, "unit": "mg/kg-day"}, {"measurement": "NOAEL", "setting": "Rattus norvegicus; subchronic, duration: 90 days, histopathology: nonneoplastic", "result": 3.14, "unit": "mg/kg-day"}, {"measurement": "LD50", "setting": "Anas platyrhynchos; acute, oral, unspecified, mortality", "result": "> 500", "unit": "mg/kg"}, {"measurement": "NOEC", "setting": "Anas platyrhynchos; reproductive", "result": 64, "unit": "mg/kg"}, {"measurement": "LD50", "setting": "Apis mellifera; duration: 48 hours, dermal", "result": "> 784", "unit": "µg/piece"}, {"measurement": "LD50", "setting": "Apis mellifera; oral, unspecified", "result": "> 112", "unit": "µg/piece"}, {"measurement": "LC50", "setting": "Colinus virginianus", "result": "> 743", "unit": "mg/kg"}, {"measurement": "LC50", "setting": "Lepomis macrochirus", "result": 2.17, "unit": "µg/mL"}, {"measurement": "NOEC", "setting": "Bibionidae; duration: 27 days, other", "result": 80, "unit": "mg/kg"}, {"measurement": "NOEC", "setting": "Bibionidae; duration: 28 days, no effects", "result": 0.24, "unit": "mg/L"}, {"measurement": "NOEC", "setting": "Daphnia magna", "result": 0.0082, "unit": "mg/L"}, {"measurement": "LR50", "setting": "Aphidius rhopalosiphi", "result": 750, "unit": "g/ha"}]}
